# Entries after “also recorded” stand apart in the source; their conditions may differ. Like-named read-outs stand apart in the source and are kept apart here.
# What was measured:
# recombinant TbGAPDH = target: T1, recombinant TbGAPDH (Trypanosoma brucei brucei, UniProt P22512); experiment: TbGAPDH inhibition assay (spectrophotometric, NADH at 340 nm); assay type: biochemical; conditions: for inhibition at 50 µM / % Inhibition at c = 50 µM: 50 µM test compound, n.i. = no inhibition at 50 µM
# T1 construct: histidine tag (cleaved yes); made in house; host or cells: E. coli BL21 (DE3)
# Method: To experimentally validate the predictions of the in silico screening, a spectrophotometric assay with recombinant TbGAPDH, measuring the increase of NADH during the conversion of 3-phosophoglyceraldehyde into 1,3-bisphosphoglycerate, was used. The increase of absorbance at 340 nm was measured for 1 min after the addition of the substrate. Initially, each test compound was added in a concentration of 50 µM and the slope of the resulting linear plots of absorbance vs. time compared to that of a control recorded in the absence of an inhibitor.
# In order to determine the activity of TbGAPDH, a spectrophotometric assay was used as described before. For that purpose, the increasing amount of produced NADH was measured at 340 nm with a Hitachi U-2900 UV-VIS-Spectrophotometer as a linear indicator for the activity of the catalytic protein. The activity determined without the addition of an inhibitor was set to 100%; the measured inhibitions were calculated accordingly. The assay was performed at 30 °C, in a buffer of 0.1 M TEA, 0.1 M glycine and 0.1 M EDTA with varying concentrations of the tested compounds in a total volume of 1 mL containing 7.17 µg TbGAPDH, 1.5 mM NAD^+ and 0.5 mM G-3-P. The tested inhibitors were solved in DMSO, resulting in a final concentration of 0.1%–1% of solvent in the assay solution. […] Typically, 5–7 different concentrations were measured (each of them in triplicate) to determine IC50 values, which were calculated using the software “Prism 3.00” (GraphPad) via nonlinear regression analysis. The measured concentration/effect curves are shown in Supplementary Figures S14–S18.
# [1] = test system: T. brucei rhodesiense (STIB 900); experiment: In vitro antitrypanosomal activity against bloodstream forms; assay type: cell-based; conditions: Trypanosoma brucei, read-out: T. brucei rhodesiense (STIB 900) IC50
# Method: Compounds 1–5 were tested for their in vitro activity against bloodstream forms of T. brucei rhodesiense (causative agent of East African HAT).
# [2] = Cytotoxicity against mammalian cells; assay type: cell-based, rat
# [3] = test system: L6 rat skeletal myoblasts; experiment: Cytotoxicity against mammalian cells; assay type: cell-based; conditions: SI = IC50(cytotoxicity)/IC50(parasite), L6 vs T. brucei rhodesiense
# TbGAPDH [4] = experiment: Previously known TbGAPDH inhibitors (literature); assay type: biochemical, Trypanosoma brucei; conditions: literature IC50 12 µM compared with IC50 of Compound 2
# Method: In comparison to previously-known TbGAPDH inhibitors, the IC50 values of our compounds are quite low, so that these hits obtained from in silico screening can be considered quite strong inhibitors of the target enzyme. To our knowledge, the strongest TbGAPDH inhibitor known up to now is a synthetic adenosine derivative with an IC50 of […] [17].
# TbGAPDH [5] = conditions: most active inhibitor of natural origin previously known; cited from earlier work
# [6] = 30 °C, 1.5 mM NAD+, 0.5 mM G-3-P
# [7] = 30 °C, 1.5 mM NAD+, 0.5 mM G-3-P, 5–7 concentrations in triplicate, nonlinear regression, read-out: IC50 (TbGAPDH inhibition)
# [8] = bloodstream forms, mean ± margin of deviation of two independent determinations
# [9] = L6 rat skeletal myoblasts, mean ± margin of deviation of two independent determinations, read-out: Cytotoxicity (L6) IC50
# T1 sequence (P22512 whole entry): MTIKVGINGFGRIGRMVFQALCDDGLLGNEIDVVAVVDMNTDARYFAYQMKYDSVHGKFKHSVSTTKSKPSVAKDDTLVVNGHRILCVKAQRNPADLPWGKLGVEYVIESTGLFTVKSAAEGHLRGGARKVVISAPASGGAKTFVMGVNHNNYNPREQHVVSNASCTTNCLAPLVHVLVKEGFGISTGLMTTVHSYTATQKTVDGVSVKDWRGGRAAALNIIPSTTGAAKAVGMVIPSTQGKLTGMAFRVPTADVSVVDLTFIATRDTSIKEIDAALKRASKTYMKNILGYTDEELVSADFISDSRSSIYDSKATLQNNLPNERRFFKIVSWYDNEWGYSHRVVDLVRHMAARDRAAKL
smiles,measurement,setting,value
CC(C)=CCC/C(C)=C/Cc1ccc(O)c(C(=O)c2c(O)cc(C(=O)O)cc2C(=O)O)c1O [NP-011694 (1)],inhibition at 50 µM,recombinant TbGAPDH; [6],> 50%
same,IC50,recombinant TbGAPDH; [7],24.6 ± 1.03 µM
same,IC50,[1]; [8],39.5 ± 3.1 µM
same,IC50,[2]; rat,50.6 ± 3.8 µM
same,SI (selectivity index),[3],1.3
CC(C)=CCc1c(O)c2c(c3c1OC(C)(C)C=C3)OCC(c1ccc(O)cc1O)C2=O (stereo not drawn) [NP-012278],inhibition at 50 µM,recombinant TbGAPDH; [6],24%
CC(C)=CCC/C(C)=C/Cc1ccc(O)c(C(=O)c2c(O)cc(C(=O)O)cc2C=O)c1O [NP-013296 (2)],IC50,recombinant TbGAPDH; [7],4.73 ± 1.04 µM
same,IC50,[1]; [8],41 ± 0.5 µM
same,IC50,[2]; rat,48.7 ± 3.8 µM
same,SI (selectivity index),[3],1.2
same,SI (selectivity index),[3]; listed as 2,not significantly selective
Oc1cc(O)cc(CCC/C=C\CCCCCCCCCc2cc(O)cc(O)c2)c1 [NP-014428 (5)],IC50,recombinant TbGAPDH; [7],22.8 ± 1.01 µM
same,IC50,[1]; [8],29.3 ± 6.3 µM
same,IC50,[2]; rat,15.5 ± 1.8 µM
same,SI (selectivity index),[3],0.5
"CCCC(=O)c1c(O)c(C)c(O)c(CC2=C(O)C(C)(C)C(O)=C(C(C)=O)C2=O)c1O [NP-013330 (3), flavaspidic acid AB]",IC50,recombinant TbGAPDH,22 ± 1.03 µM
same,IC50,[1]; [8],17.9 ± 1.6 µM
same,IC50,[2]; [9],54.2 ± 0.5 µM
same,SI (selectivity index),[3],3.0
same,SI (selectivity index),[3]; listed as 3,not significantly selective; also recorded: three
"Nc1nc(N)nc(Nc2ccc([As]3SCC(CO)S3)cc2)n1 (stereo not drawn) [Melarsoprol, reference compound]",IC50,[1],0.005 ± 0.001 µM
"COc1cc([C@@H]2c3cc4c(cc3[C@H](O)[C@H]3COC(=O)[C@H]23)OCO4)cc(OC)c1OC [Podophyllotoxin, reference compound]",IC50,[2]; [9],0.019 ± 0.002 µM
CC(C)=CCc1c(O)c(CC=C(C)C)c2occ(-c3ccc(O)c(O)c3)c(=O)c2c1O [NP-013070],inhibition at 50 µM,recombinant TbGAPDH; [6],33%
O=C(/C=C\c1ccc(O)cc1)NCCCCNC(=O)/C=C/c1ccc(O)cc1 [NP-015973],% Inhibition at c = 50 µM,recombinant TbGAPDH; [6],n.i.
CC(C)=CCc1c2c(c3occ(-c4ccc(O)c(O)c4)c(=O)c3c1O)C=CC(C)(C)O2 [NP-005755],inhibition at 50 µM,recombinant TbGAPDH; [6],44%
C/C=C(\NC(=O)CCCCCCCCCCCCCCC(=O)O)C(=O)O [NP-019430],inhibition at 50 µM,recombinant TbGAPDH; [6],45%
COC(=O)/C=C(\C)CC[C@@]1(C)[C@H](C)CC[C@@]2(C)C(C(=O)O)=CCC[C@H]12 [monomethyl kolavate],fold less potent than Compound 2 (TbGAPDH IC50),TbGAPDH [4],about 2.5 fold
same,IC50,TbGAPDH [5],12 µM
CC(C)=CCC/C(C)=C/Cc1ccc(O)c(C(=O)c2c(O)cc(C=O)cc2C(=O)O)c1O [NP-013378 (4)],IC50,recombinant TbGAPDH; [7],6.68 ± 1.04 µM
same,IC50,[1]; [8],6.7 ± 2.2 µM
same,IC50,[2]; rat,48.9 ± 4.1 µM
same,SI (selectivity index),[3],7.3
same,SI (selectivity index),[3]; listed as 4,seven
CCCCCCC/C=C/C=C/C(=O)NCCc1ccc(O)cc1 [NP-007496],% Inhibition at c = 50 µM,recombinant TbGAPDH; [6],n.i.
COc1cc(O)c2c(=O)c(-c3c(O)cc(O)c4c(=O)cc(-c5ccc(O)cc5)oc34)c(-c3ccc(O)cc3)oc2c1 [NP-008941],% Inhibition at c = 50 µM,recombinant TbGAPDH; [6],n.i.
COc1ccc(/C=C/C(=O)c2c(OC)cc(OC)c(CC=C(C)C)c2OC)cc1 [NP-010904],% Inhibition at c = 50 µM,recombinant TbGAPDH; [6],n.i.

# Source: publication PMC6332274, “In Silico Identification and in Vitro Activity of Novel Natural Inhibitors of Trypanosoma brucei Glyceraldehyde-3-phosphate-dehydrogenase” (Molecules, 2015)
